Activity calls are given as the source filed them. Unless noted, no cut-off for these calls is given here.

The target of test [1] is Sphingosine 1-phosphate receptor 3 (Homo sapiens, UniProt Q99500). The test can be described thus: Late-stage fluorescence-based dose-response cell-based counterscreen assay to identify agonists of the Sphingosine 1-Phosphate Receptor 4 (S1P4): Sphingosine 1-Phosphate Receptor 3 (S1P3) agonist assay Set 2. The class given is functional. (The purpose of a counterscreen is to sort out artefacts and off-target activity.)
Sequence of Sphingosine 1-phosphate receptor 3 (Q99500 whole entry): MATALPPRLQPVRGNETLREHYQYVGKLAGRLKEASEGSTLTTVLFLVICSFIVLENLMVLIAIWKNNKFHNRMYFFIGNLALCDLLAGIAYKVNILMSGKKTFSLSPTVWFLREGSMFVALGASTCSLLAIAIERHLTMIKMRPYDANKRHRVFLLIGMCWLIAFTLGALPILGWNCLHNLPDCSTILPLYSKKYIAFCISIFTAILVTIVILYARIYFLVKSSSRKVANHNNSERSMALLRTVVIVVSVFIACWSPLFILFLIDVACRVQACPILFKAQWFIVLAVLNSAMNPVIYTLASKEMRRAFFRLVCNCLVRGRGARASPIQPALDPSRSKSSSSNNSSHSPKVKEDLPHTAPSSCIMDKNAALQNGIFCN

The target in test [2] is Sphingosine 1-phosphate receptor 2 (Homo sapiens, UniProt O95136). The test can be described thus: S1P2 receptor agonists, human, late-stage follow-up, counter-screen for S1P4 agonist project, cell-based, fluorescence, set 2 (AID 504873). The class given is functional.
Sequence of Sphingosine 1-phosphate receptor 2 (O95136 whole entry): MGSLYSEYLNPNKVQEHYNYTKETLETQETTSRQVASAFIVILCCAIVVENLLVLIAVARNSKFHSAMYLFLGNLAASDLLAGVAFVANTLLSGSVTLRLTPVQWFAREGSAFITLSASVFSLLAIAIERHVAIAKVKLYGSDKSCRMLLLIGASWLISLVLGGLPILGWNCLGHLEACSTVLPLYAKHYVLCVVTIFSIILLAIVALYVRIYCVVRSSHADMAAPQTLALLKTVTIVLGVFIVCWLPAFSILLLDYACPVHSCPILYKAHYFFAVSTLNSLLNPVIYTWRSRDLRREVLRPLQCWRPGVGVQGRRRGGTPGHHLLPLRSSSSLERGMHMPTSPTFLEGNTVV
Test [3] addresses Sphingosine 1-phosphate receptor 5 (Homo sapiens, UniProt Q9H228). In words: S1P5 receptor agonists, human, late-stage follow-up, counter-screen for S1P4 agonist project, cell-based, fluorescence, set 2 (AID 504867). Type of test: functional.
Test [4] concerns the target Sphingosine 1-phosphate receptor 1 (Homo sapiens, UniProt P21453). In words: Late-stage fluorescence-based dose-response cell-based counterscreen assay to identify agonists of the Sphingosine 1-Phosphate Receptor 4 (S1P4): Sphingosine 1-Phosphate Receptor 1 (S1P1) agonist assay Set 2. Type of test: functional.
For another test, the system named is CHO. In words: cytotoxicity in TLR9-MyD88 CHO cells, dose response, cytotoxicity control for TLR9-MyD88 binding inhibitor project, cell-based, luminescence (AID 588339).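 Note: CHO cells stably coexpressing TLR9 and MyD88 fusions from primary screen; compound exposure lasted 48 hours before viability readout.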 The class given is functional, hamster. The conditions noted are these: Cricetulus griseus.
Test [5] is described as follows: Luminescence Cell-Based Dose Retest to Confirm Inhibitors of Cancer Stem Cells. [Related pubchem assays (depositor defined):AID2717, AID2721]. Type of test: functional. The conditions noted are these: Homo sapiens.
The target in another test is Beta Lactamase (Pseudomonas aeruginosa, UniProt Q932Y6). In words: beta-lactamase reporter inhibitor potency, dose response, artefact control for TLR9-MyD88 binding inhibitor project, BLA reporter cells, FRET fluorescence (AID 588341).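 Note: cell based assay in CHO-K1 cells stably expressing beta-lactamase.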 Type of test: cell-based.
Sequence of Beta Lactamase (Q932Y6 whole entry): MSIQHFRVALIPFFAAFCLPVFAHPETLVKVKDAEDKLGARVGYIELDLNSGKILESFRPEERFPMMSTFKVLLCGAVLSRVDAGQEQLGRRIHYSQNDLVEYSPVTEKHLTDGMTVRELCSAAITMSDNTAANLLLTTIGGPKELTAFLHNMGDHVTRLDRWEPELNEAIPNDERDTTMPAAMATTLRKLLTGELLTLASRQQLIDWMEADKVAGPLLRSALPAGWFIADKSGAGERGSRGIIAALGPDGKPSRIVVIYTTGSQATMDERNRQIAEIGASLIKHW
Test [6] deals with DNA dC->dU-editing enzyme APOBEC-3G (Homo sapiens, UniProt Q9HC16). In words: APOBEC3G deaminase inhibitors, SAR follow-up, biochemical, fluorescence, single-stranded DNA substrate (AID 602136). The following applies: read-out: IC50_Mean. The class given is functional.
Sequence of DNA dC->dU-editing enzyme APOBEC-3G (Q9HC16 whole entry): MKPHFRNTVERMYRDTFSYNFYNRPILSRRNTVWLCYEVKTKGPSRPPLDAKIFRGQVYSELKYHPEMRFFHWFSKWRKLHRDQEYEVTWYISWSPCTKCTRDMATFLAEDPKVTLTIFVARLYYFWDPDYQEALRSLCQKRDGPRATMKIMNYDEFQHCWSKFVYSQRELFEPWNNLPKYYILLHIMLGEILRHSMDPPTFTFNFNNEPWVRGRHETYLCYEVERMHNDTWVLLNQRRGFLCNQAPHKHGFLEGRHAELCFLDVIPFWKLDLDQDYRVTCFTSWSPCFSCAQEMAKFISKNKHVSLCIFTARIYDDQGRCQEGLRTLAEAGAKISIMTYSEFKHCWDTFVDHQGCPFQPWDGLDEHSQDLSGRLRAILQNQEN
For test [7], the target named is DNA dC->dU-editing enzyme APOBEC-3A (Homo sapiens, UniProt P31941). The test can be described thus: SAR analysis of small molecule inhibitors of APOBEC3A DNA Deaminase via a fluorescence-based single-stranded DNA deaminase assay. The class given is functional. The following applies: read-out: IC50_Mean.
Sequence of DNA dC->dU-editing enzyme APOBEC-3A (P31941 whole entry): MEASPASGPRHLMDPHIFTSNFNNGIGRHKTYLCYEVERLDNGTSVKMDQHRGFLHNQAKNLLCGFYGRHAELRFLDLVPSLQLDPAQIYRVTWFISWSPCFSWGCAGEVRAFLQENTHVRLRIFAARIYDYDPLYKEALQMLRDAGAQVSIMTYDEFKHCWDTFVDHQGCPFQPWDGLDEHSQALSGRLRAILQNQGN
The target of the next test is Wee1-like protein kinase (Homo sapiens, UniProt P30291). The test can be described thus: Navigating the Kinome. Panel member name: WEE1. The class given is functional.
Sequence of Wee1-like protein kinase (P30291 whole entry): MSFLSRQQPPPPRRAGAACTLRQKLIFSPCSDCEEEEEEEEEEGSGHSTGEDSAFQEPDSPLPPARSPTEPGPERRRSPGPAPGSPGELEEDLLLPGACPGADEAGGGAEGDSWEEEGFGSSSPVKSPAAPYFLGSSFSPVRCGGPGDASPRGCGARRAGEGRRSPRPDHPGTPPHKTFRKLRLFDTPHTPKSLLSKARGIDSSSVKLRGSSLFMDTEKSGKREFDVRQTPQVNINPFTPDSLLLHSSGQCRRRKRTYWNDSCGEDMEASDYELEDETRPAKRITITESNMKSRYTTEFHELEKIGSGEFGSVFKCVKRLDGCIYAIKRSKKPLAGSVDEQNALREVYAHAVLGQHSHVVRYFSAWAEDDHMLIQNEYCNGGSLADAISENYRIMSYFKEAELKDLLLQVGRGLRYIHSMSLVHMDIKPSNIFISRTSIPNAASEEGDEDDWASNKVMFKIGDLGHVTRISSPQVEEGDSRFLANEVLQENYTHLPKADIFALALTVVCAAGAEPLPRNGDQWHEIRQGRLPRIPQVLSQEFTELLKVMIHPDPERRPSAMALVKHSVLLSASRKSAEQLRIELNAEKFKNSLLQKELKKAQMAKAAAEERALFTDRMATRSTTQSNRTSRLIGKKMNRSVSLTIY
Test [8] deals with Cell division cycle 7-related protein kinase (Homo sapiens, UniProt O00311). Type of test: functional.
Sequence of Cell division cycle 7-related protein kinase (O00311 whole entry): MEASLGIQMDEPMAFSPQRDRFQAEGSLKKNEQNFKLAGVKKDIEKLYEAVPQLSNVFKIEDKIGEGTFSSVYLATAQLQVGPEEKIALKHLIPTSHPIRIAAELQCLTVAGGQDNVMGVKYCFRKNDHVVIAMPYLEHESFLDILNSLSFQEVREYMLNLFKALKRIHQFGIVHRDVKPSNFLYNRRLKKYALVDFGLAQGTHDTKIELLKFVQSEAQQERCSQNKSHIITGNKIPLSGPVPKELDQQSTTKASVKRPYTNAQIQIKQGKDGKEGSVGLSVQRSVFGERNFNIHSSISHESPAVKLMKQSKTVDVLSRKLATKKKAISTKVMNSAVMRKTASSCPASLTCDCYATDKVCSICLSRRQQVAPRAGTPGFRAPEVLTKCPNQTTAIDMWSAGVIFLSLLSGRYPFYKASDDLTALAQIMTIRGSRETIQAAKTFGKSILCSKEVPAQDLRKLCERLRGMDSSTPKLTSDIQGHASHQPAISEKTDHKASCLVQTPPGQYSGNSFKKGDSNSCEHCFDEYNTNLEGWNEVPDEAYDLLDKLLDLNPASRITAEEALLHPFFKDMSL
Test [9] has as its target T1, Histone-lysine N-methyltransferase NSD2 (Homo sapiens, UniProt O96028).
T1 sequence (O96028 whole entry): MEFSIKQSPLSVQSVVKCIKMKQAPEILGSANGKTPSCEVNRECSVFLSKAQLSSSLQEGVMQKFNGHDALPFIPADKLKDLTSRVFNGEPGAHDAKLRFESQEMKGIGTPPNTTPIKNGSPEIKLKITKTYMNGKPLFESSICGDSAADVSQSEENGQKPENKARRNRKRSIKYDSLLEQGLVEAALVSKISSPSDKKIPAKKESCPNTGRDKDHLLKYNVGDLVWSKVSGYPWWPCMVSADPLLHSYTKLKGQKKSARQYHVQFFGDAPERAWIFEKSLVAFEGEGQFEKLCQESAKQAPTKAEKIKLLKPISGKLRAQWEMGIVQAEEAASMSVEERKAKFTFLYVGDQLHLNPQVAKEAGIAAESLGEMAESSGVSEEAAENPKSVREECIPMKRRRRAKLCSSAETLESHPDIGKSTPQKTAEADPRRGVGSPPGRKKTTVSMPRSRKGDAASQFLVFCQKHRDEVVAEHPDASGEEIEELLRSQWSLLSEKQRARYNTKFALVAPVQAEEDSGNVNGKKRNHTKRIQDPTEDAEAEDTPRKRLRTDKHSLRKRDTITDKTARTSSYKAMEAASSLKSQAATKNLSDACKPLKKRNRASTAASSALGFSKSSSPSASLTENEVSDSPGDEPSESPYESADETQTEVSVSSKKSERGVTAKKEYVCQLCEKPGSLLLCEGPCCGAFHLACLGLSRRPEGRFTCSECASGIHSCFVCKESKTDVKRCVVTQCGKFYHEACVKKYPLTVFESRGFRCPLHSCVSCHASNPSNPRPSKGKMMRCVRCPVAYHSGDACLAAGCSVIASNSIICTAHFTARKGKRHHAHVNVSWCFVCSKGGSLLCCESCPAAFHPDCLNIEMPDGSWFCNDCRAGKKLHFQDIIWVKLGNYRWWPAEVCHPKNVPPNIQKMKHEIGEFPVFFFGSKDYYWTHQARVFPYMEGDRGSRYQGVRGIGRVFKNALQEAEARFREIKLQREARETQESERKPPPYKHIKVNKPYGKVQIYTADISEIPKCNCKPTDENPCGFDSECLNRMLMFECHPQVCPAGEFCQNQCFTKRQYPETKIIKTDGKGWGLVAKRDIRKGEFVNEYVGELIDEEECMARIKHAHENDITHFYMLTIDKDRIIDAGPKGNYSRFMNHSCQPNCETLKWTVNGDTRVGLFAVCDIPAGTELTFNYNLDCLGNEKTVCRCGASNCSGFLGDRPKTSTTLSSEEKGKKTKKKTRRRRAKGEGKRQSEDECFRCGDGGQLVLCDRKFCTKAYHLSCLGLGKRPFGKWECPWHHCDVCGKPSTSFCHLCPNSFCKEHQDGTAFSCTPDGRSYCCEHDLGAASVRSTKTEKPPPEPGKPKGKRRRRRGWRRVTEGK
The class given is biochemical.

Test [10] deals with T2, Carboxy-terminal domain RNA polymerase II polypeptide A small phosphatase 1 (Homo sapiens, UniProt Q9GZU7).
T2 sequence (Q9GZU7 whole entry): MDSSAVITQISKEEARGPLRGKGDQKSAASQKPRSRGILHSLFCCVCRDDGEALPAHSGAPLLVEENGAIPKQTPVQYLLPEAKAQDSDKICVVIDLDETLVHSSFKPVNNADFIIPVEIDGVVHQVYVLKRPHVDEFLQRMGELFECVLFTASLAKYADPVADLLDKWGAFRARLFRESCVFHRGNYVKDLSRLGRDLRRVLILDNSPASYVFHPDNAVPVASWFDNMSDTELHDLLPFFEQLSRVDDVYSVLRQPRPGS
In words: inhibitors of CTDSP1, concentration-response testing, biochemical assay, absorbance-based, actives from ultra-high-throughput screening (AID 540297). Type of test: functional.

Another test concerns the target T3, Caspase-6 (Homo sapiens, UniProt P55212).
T3 sequence (P55212 whole entry): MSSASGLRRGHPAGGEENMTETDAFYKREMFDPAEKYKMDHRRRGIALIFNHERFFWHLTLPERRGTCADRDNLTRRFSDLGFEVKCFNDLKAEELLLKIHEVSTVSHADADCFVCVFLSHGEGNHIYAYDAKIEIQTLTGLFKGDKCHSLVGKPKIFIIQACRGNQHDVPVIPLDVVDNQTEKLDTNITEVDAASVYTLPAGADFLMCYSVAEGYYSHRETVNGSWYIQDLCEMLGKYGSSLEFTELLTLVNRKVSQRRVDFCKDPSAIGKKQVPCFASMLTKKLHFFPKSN
The test can be described thus: human caspase-6 inhibitors, dose response, biochemical, VEID-R110 fluorescence, cherry-pick (AID 720632).

Test [11] addresses T4, Beta-adrenergic receptor kinase 1 (Homo sapiens, UniProt P25098). In words: aptamer displacement from bead-bound GRK2 – biochemical, cherry pick 1, bead flow cytometry, dose response (AID 504500). On the technique in general: In flow cytometry, cells or beads pass a laser one at a time.
Test [12] addresses T4, Beta-adrenergic receptor kinase 1. In words: GRK2 inhibitors displacing RNA aptamer, dose response, biochemical, flow cytometry beads, FAM-aptamer, powder set 1 (AID 588720).

T4 sequence (P25098 whole entry): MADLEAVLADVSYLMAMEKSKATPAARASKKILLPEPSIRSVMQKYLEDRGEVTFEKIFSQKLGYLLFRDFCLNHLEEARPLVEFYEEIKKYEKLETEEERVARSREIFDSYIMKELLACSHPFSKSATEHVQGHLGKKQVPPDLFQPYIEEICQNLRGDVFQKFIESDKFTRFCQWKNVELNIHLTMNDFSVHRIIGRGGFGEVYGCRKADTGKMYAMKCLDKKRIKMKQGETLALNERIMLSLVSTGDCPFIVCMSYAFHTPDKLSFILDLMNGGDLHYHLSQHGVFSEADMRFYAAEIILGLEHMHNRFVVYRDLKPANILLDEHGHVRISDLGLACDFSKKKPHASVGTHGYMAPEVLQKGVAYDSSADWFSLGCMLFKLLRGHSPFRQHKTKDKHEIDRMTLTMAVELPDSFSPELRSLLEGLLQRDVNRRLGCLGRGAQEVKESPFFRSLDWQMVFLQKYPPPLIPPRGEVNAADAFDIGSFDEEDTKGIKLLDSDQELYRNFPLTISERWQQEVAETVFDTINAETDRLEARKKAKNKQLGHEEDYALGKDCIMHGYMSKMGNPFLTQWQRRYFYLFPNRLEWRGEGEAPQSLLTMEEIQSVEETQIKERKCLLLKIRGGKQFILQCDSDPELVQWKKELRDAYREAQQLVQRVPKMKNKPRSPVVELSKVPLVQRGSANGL
Sequence of Sphingosine 1-phosphate receptor 1 (P21453 whole entry, the tested form may be a part): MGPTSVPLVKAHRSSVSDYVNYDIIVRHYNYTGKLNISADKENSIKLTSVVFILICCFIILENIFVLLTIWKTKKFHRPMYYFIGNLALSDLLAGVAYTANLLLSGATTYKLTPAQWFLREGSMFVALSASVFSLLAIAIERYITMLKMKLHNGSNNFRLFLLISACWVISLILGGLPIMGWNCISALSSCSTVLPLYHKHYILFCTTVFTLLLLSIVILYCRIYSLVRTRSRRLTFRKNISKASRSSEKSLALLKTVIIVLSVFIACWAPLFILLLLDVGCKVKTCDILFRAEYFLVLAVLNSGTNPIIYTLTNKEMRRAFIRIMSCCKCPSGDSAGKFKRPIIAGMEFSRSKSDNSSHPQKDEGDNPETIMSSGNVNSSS
Sequence of Sphingosine 1-phosphate receptor 5 (Q9H228 whole entry): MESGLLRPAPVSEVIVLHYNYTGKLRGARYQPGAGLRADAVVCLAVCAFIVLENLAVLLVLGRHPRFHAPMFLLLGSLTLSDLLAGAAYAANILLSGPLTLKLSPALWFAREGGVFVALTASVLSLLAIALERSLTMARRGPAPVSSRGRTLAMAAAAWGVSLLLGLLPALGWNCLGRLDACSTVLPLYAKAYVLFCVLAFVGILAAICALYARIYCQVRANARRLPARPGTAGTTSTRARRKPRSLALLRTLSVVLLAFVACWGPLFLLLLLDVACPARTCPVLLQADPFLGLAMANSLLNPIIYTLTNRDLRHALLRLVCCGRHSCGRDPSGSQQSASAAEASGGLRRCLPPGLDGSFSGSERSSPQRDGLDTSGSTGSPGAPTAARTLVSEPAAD

As to `CC/N=C1\S/C(=C\c2cc(C)n(-c3ccccc3F)c2C)C(=O)N1CC`, the EC50 in [1], in test [2], in [3] and in test [4] was > 25 µM (inactive) in each case.

Take `c1cc(SC2CCCCC2)cc(-c2nc3cnccn3c2NC2CCCCC2)c1`: the results for the IC50 in the test on CHO and at Beta Lactamase were 23.4 µM (inactive) and 4.83 µM (active), respectively. In test [5], the AC50 (commonly the concentration at which the activity in the assay is half-maximal) was 1.58 µM (active).

Consider `CCOc1nc(Nc2ccccc2)nc(Nc2ccc(-c3nc4ccccc4o3)cc2)n1`, for which the IC50 in test [6] and in [7] was > 99 µM (inactive) each time.

Turning to `Fc1ccc(Nc2ncnc(Nc3ccc4cn[nH]c4c3)n2)cc1`, the Ki (in general, a dissociation constant, usually derived from enzyme kinetics or from competition with a known ligand) on Wee1-like protein kinase is > 3.16 µM (inactive); in [8], 0.0501 µM (active).

For `O=C(O)Cc1ccc(-n2cccc2)cc1`, the AC50 in test [9] was 11.9 µM (active); at Caspase-6 it was 2.7 µM (active). The IC50 in [10] is 4.01 µM (active). The EC50 (usually the concentration needed to bring the measured effect to its halfway point) in test [11] was 36.2 µM (inactive); in test [12], 3.21 µM (active).
